Data on 7 compounds can be found in publication PMC8370666 (Journal of the Iranian Chemical Society, 2021).

What all share (test): biochemical
For one assay, the target named is SARS-CoV nsp14 (Severe acute respiratory syndrome coronavirus, UniProt P0C6X7). To be noted: for IC50: SARS-Cov nap14 IC50; for inhibition at 50 µM: read-out: % of inhibition at 50 μM, SARs-Cov nsp 14.
The target in assay [1] is vaccinia virus capping enzyme (D1-D12) (Vaccinia virus, UniProt P04298). To be noted: read-out: % of inhibition at 50 μM, Vaccinia virus D1-D12.
Assay [2] concerns the target human RNA N7-MTase (hRNMT) (Homo sapiens, UniProt O43148). It is filed as biochemical. Conditions: for inhibition at 50 µM: read-out: % of inhibition at 50 μM, hRNMT.

Some results are limits rather than exact numbers.

Sequence of human RNA N7-MTase (hRNMT) (O43148 whole entry): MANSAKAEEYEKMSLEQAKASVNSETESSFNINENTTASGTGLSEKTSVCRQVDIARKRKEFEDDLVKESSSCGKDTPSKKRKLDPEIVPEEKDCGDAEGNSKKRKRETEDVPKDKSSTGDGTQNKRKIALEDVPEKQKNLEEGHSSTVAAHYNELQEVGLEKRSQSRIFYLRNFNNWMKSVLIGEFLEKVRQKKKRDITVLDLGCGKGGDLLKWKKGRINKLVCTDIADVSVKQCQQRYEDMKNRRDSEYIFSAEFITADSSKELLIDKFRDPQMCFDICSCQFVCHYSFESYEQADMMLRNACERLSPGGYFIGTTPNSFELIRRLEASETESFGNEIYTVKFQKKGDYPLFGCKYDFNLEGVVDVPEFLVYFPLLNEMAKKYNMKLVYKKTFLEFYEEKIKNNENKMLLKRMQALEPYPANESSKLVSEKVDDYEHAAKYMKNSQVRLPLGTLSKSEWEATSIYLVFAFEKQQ

As for `CCOC(=O)C1=C(N)OC2=C(c3sc(=S)n(-c4ccccc4)c3CC2)C1c1ccccc1` (centres unmarked) [Compound 23c, Ethyl 7-amino-3,9-diphenyl-2-thioxo-3,4,5,9-tetrahydro-2H-chromeno[6,5-d]thiazole-8-carboxylate], the 50% inhibitory concentration (IC50) against SARS-CoV nsp14 worked out at 28.4 ± 3.26 µM; in assay [2] it was 70.3 ± 3.8 µM. The results for the inhibition at 50 µM (on SARS-CoV nsp14; in assay [1]; in assay [2]) were 64.3 ± 5.53%, 70.4 ± 5.63% and 59.3 ± 4.68%, respectively.
On to `N#CC1=C(N)OC2=C(c3sc(N)c(C#N)c3CC2)C1c1ccccc1` (centres unmarked) [Compound 6a, 2,7-Diamino-9-phenyl-5,9-dihydro-4H-thieno[2,3-f]chromene-3,8-dicarbonitrile], for which, on SARS-CoV nsp14, the 50% inhibitory concentration (IC50) was determined as 26.4 ± 3.57 µM and the inhibition at 50 µM stood at 68.2 ± 4.53%. The inhibition at 50 µM in assay [1] came to 79.3 ± 5.37%. Further, in assay [2], the “% of inhibition at 50 μM, hRNMT” value is listed as “high inhibitions”; inhibition was half-maximal at 36.5 ± 6.27 µM (IC50); the inhibition at 50 µM was determined as 80.3 ± 3.74%.
On to `N#CC1=C(N)OC2=C(c3sc(=S)n(-c4ccccc4)c3CC2)C1c1ccccc1` (centres unmarked) [Compound 23a, 7-Amino-3,9-diphenyl-2-thioxo-3,4,5,9-tetrahydro-2H-chromeno[6,5-d]thiazole-8-carbonitrile], for which the half-maximal inhibitory concentration (IC50) against SARS-CoV nsp14 is 32.4 ± 4.58 µM; in assay [2] it was 24.7 ± 5.47 µM. The inhibition at 50 µM at SARS-CoV nsp14 was 56.6 ± 6.72%; in assay [1], 45.8 ± 6.38%; in assay [2] it was 42.7 ± 5.88%.
The corresponding values for `N#Cc1c(N)sc2c1CCc1c-2sc(=S)n1-c1ccccc1` [Compound 21a, 7-Amino-3-phenyl-2-thioxo-2,3,4,5-tetrahydrothieno[2',3':3,4]benzo[1,2-d]thiazole-6-carbonitrile] are 18.5 ± 2.68 µM, 56.3 ± 4.62 µM, 49.2 ± 6.73%, 57.8 ± 5.82% and 60.3 ± 5.37%.
As for `N#CC1=C(N)OC2=C(C=C(c3c(N)nn(-c4ccccc4)c3N)CC2)C1c1ccccc1Cl` (centres unmarked) [Compound 9b, 2-Amino-4-(2-chlorophenyl)-6-(3,5-diamino-1-phenyl-1H-pyrazol-4-yl)-7,8-dihydro-4H-chromene-3-carbonitrile], on SARS-CoV nsp14, half-maximal inhibition (IC50) was put at 0.36 ± 0.2 µM and the inhibition at 50 µM amounted to 93.3 ± 4.17%. Besides, the inhibition at 50 µM in assay [1] came to 96.1 ± 2.48%. For the same compound, in assay [2], the “% of inhibition at 50 μM, hRNMT” value is reported as “high inhibitions”; it took 1.91 ± 1.32 µM to reach half-maximal inhibition (IC50); the inhibition at 50 µM stood at 90.3 ± 5.2%.
For the compound `COc1ccc(C2C(C#N)=C(N)OC3=C2c2sc(N)c(C#N)c2CC3)cc1` (centres unmarked) [Compound 6c, 2,7-Diamino-9-(4-methoxyphenyl)-5,9-dihydro-4H-thieno[2,3-f]chromene-3,8-dicarbonitrile], at SARS-CoV nsp14, the IC50 amounted to 0.45 ± 0.19 µM and the inhibition at 50 µM was 88.2 ± 4.26%. Besides, the inhibition at 50 µM in assay [1] came out at 92.2 ± 5.22%. Also, in assay [2], the “% of inhibition at 50 μM, hRNMT” value is given as “high inhibitions”; the half-inhibitory concentration (IC50) is below 0.05 µM; the inhibition at 50 µM was 92.2 ± 5.22%.
Turning to `CCOC1C(C#N)=C(O)OC2=C1c1sc(=S)n(-c3ccccc3)c1CC2` (centres unmarked) [Compound 20b, 9-Ethoxy-7-hydroxy-3-phenyl-2-thioxo-3,4,5,9-tetrahydro–2H-chromeno[6,5-d]thiazole-8-carbonitrile], the figures for the IC50 (against SARS-CoV nsp14; in assay [2]) were 32.6 ± 3.8 µM and 18.8 ± 5.36 µM, respectively. Further, the inhibition at 50 µM on SARS-CoV nsp14 was 36.1 ± 6.83%; in assay [1] it was 41.4 ± 4.93%; in assay [2], 39.5 ± 6.83%.

Usually IC50 stands for the midpoint of a concentration-inhibition curve. The low end stands for inhibition by little substance, the high end for a need for much substance. In general, inhibition refers to the drop in the measured response relative to a control, in per cent.
